The target of test [1] is T1, ECHANGEUR D'ANIONS (Homo sapiens, UniProt P02730).
T1 construct: systèmes de transport du sodium et du potassium des érythrocytes humains; endogenous in cells; host or cells: human erythrocytes
T1 sequence (P02730 1-911): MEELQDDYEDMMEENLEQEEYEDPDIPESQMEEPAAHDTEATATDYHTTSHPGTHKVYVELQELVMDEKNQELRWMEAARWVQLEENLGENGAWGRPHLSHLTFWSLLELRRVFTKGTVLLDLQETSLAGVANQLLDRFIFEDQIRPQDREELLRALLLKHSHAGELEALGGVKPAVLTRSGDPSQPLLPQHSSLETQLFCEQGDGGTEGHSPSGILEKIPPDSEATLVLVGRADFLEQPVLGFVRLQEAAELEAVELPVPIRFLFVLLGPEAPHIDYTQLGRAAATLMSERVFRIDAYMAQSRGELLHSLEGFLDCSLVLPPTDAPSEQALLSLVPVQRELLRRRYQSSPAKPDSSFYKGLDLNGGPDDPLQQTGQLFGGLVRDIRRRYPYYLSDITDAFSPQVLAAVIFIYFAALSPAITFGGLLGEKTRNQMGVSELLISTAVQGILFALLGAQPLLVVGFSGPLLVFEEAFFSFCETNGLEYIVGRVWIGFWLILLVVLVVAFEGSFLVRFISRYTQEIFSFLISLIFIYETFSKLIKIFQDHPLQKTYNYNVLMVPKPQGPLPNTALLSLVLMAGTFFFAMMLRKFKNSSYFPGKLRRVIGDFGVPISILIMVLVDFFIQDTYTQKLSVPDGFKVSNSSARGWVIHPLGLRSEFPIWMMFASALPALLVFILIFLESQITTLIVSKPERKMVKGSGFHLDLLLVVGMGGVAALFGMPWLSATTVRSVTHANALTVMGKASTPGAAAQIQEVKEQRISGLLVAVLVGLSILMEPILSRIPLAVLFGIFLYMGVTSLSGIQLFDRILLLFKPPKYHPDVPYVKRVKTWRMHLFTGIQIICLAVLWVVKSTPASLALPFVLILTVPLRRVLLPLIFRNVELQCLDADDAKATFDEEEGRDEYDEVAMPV
Description: Anion exchanger of human erythrocytes. As to conditions: read-out: EFFET SUR L'ECHANGEUR D'ANIONS IC 50. The test is classed as cell-based, ERYTHROCYTES HUMAINS. From the text: Cet effet a été étudié selon la méthodologie décrite par G. GARAY et coll. dans Naunyn-Schmidberg's Arch. Pharmakol. 334 (1986) 202-209 et dans Bioch. Pharm. 33 (1984) 2013-2020.

Test [2] deals with rats mâles SHR (souche OKAMOTO). As to the kind of experiment: Antihypertensive action in the non-anaesthetised SHR rat (systolic blood pressure, sphygmomanometric method). The test is classed as in vivo. As to conditions: A = Aigu, 100 mg/kg PO, 24 h after dosing. The source says: L'étude a été effectuée sur des lots de rats mâles SHR (souche OKAMOTO) âgés de 16 semaines. La pression artérielle systolique est déterminée par la méthode sphygmomanométrique (électro sphygmogra- phe NARCO biosystems type PE 300). Les mesures de tension sont réalisées 24 heures après administration d'un composé de formule générale I, la pression artérielle systolique est calculée à partir de la moyenne de 6 à 8 mesures.

pIC50: −log10 of the molar value.

`Cc1ccc(O)c(CCOc2ccccc2)c1` [ex 36]: the pIC50 in test [1] is 6.10. Besides, the “Variation de l'effet anti-hyper-tenseur 24 heures après produit” value in test [2] was “Non actif”.
